Earlier results, collected in patent US20100216641A1, “Low VOC and Stable Plant Growth Regulator Liquid and Granule Compositions” (priority 2009, published 2010).

Details: at 25° C.

O=C(Nc1ccccc1)Nc1ccnc(Cl)c1 [CPPU, forchlorfenuron]
water solubility: 39 ppm
